Experimental data from PubChem BioAssay AID1963425 (Molecular Pharmacology Branch, DTP, NCI, 2024).

System: 323965-272-R-J2-PDC complex spheroid growth, % test/control
Experiment: Anticancer human tumor 323965-272-R-J2-PDC patient-derived pancreatic carcinoma cell line growth inhibition [Asc]
Details: for IC50: curve of first compound; for viability, T/C: stronger effect = lower value
In short: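 Tumor cells were grown as complex spheroids with human endothelial cells (HUVEC) and human mesenchymal stem cells as stroma. Agents were tested alone and in combination, in half-log steps down from the clinical Cmax, or from 10 microM where Cmax was unknown.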
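Also: compound exposure lasted 7 days starting three days after spheroid seeding.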
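For viability, T/C in this document: 100% = DMSO vehicle control wells with viability set relative to vehicle.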

Question: Which results are given for `Cn1ncnc1[C@H]1c2n[nH]c(=O)c3cc(F)cc(c23)N[C@@H]1c1ccc(F)cc1` + Cc1c(S(C)(=O)=O)c(-c2cc(F)cc(N3CCN(c4ccc(NS(=O)(=O)c5ccc(NC(CCN6CCC(C(=O)OCCCP(=O)(O)O)CC6)CSc6ccccc6)c(S(=O)(=O)C(F)(F)F)c5)cc4)CC3)c2)c(-c2ccc(Cl)cc2)n1C(C)C?
Answer: IC50 (second compound 0.0316 µM): > 100 nM; IC50 (second compound 0.1 µM): > 100 nM; IC50 (second compound 0.316 µM): > 100 nM; IC50 (second compound 1 µM): > 100 nM; IC50 (second compound 3.16 µM): > 100 nM; IC50 (second compound 10 µM): > 100 nM; viability, T/C (second compound 0.0316 µM, first compound 0.000316 µM): 105%; viability, T/C (second compound 0.0316 µM, first compound 0.001 µM): 92.2%; viability, T/C (second compound 0.0316 µM, first compound 0.00316 µM): 105%; viability, T/C (second compound 0.0316 µM, first compound 0.01 µM): 96.2%; viability, T/C (second compound 0.0316 µM, first compound 0.0316 µM): 95.3%; viability, T/C (second compound 0.0316 µM, first compound 0.1 µM): 86.4%; viability, T/C (second compound 0.1 µM, first compound 0.000316 µM): 86.4%; viability, T/C (second compound 0.1 µM, first compound 0.001 µM): 102%; viability, T/C (second compound 0.1 µM, first compound 0.00316 µM): 97.9%; viability, T/C (second compound 0.1 µM, first compound 0.01 µM): 104%; viability, T/C (second compound 0.1 µM, first compound 0.0316 µM): 95.4%; viability, T/C (second compound 0.1 µM, first compound 0.1 µM): 92.7%; viability, T/C (second compound 0.316 µM, first compound 0.000316 µM): 94.8%; viability, T/C (second compound 0.316 µM, first compound 0.001 µM): 99.7%; viability, T/C (second compound 0.316 µM, first compound 0.00316 µM): 100%; viability, T/C (second compound 0.316 µM, first compound 0.01 µM): 84.2%; viability, T/C (second compound 0.316 µM, first compound 0.0316 µM): 96.7%; viability, T/C (second compound 0.316 µM, first compound 0.1 µM): 80.5%; viability, T/C (second compound 1 µM, first compound 0.000316 µM): 96.5%; viability, T/C (second compound 1 µM, first compound 0.001 µM): 89.3%; viability, T/C (second compound 1 µM, first compound 0.00316 µM): 88.8%; viability, T/C (second compound 1 µM, first compound 0.01 µM): 87.2%; viability, T/C (second compound 1 µM, first compound 0.0316 µM): 84.3%; viability, T/C (second compound 1 µM, first compound 0.1 µM): 66.5%; viability, T/C (second compound 3.16 µM, first compound 0.000316 µM): 86.6%; viability, T/C (second compound 3.16 µM, first compound 0.001 µM): 76.2%; viability, T/C (second compound 3.16 µM, first compound 0.00316 µM): 80.3%; viability, T/C (second compound 3.16 µM, first compound 0.01 µM): 75.4%; viability, T/C (second compound 3.16 µM, first compound 0.0316 µM): 70%; viability, T/C (second compound 3.16 µM, first compound 0.1 µM): 64.5%; viability, T/C (second compound 10 µM, first compound 0.000316 µM): 81.5%; viability, T/C (second compound 10 µM, first compound 0.001 µM): 73.4%; viability, T/C (second compound 10 µM, first compound 0.00316 µM): 71.8%; viability, T/C (second compound 10 µM, first compound 0.01 µM): 69.1%; viability, T/C (second compound 10 µM, first compound 0.0316 µM): 71.1%; viability, T/C (second compound 10 µM, first compound 0.1 µM): 59.6%
